Source: patent publication US7781402B2, “Methods and implantable devices for treating supraventricular arrhythmias” (Closed Loop Therapies Ltd., priority 2004, dated 2010)

Experiments:
stroke = conditions: people with atrial fibrillation; cited from earlier work
[1] = tested on: recent-onset atrial fibrillation; conditions: phase 3 trial; cited from earlier work
atrial tachycardia = assay: Termination of induced atrial tachycardia in anesthetized Wistar rats (ECG); type: in vivo
Protocol: The effect of rapidly hydrolysable cholinergic receptor agonists (RHCA) on supraventricular arrhythmia was tested in anesthetized Wistar rats, as follows.
(§1) Induction of atrial tachycardia, atrial fibrillation and atrial flutter in rats—Wistar rats of either sex weighing 450-550 g were used in this study. Rats were anesthetized and atrial tachycardia, atrial fibrillation, or atrial flutter were induced by cardiac stimulation using a programmable stimulator with an isolated constant-current source. Stimuli of rectangular pulses of 2 milliseconds (ms) duration at three times diastolic threshold were delivered via transesophageal bipolar catheter positioned optimally to stimulate the atria. Double and triple extra stimulation techniques or a minimal coupling interval of 10 ms were performed in an attempt to induce atrial arrhythmias. Atrial burst pacing at intervals of 40 to 80 ms was also performed to induce atrial arrhythmias.
(§2) Electrocardiogram (ECG) recording—The surface six-lead ECG was continuously recorded from subcutaneous 25-gauge electrodes in each limb of the animal. The ECG channels were amplified (0.1-0.5 mV/cm) and filtered between 0.5-250 Hz. The ECG variables were calculated according to standard criteria.
(§3) Rapidly hydrolysable cholinergic receptor agonists (RHCA)—The RHCA were injected either through the tail vein or directly into the right ventricular cavity of rats with induced atrial fibrillation, atrial flutter or atrial tachycardia. The RHCA used in the present study was acetylcholine (ACh). […]

atrial flutter = assay: Termination of induced atrial flutter in anesthetized Wistar rats (ECG); type: in vivo; conditions: nine rats, 0.02-0.3 mg/kg via tail vein
From the text: as §1, §2, §3

atrial fibrillation [2] = assay: Termination of induced atrial fibrillation in anesthetized Wistar rats (ECG); type: in vivo
From the text: as §1, §2
Rapidly hydrolysable cholinergic receptor agonists (RHCA)—The RHCA were injected either through the tail vein or directly into the right ventricular cavity of rats with induced atrial fibrillation, atrial flutter or atrial tachycardia. The RHCA used in the present study was acetylcholine (ACh). ACh was dissolved at a concentration of either 1 mg/ml or 0.1 mg/ml in 0.9% NaCl solution and was injected either to the tail vein at a dosage of 0.2 mg/kg body weight, or to the right ventricle at a dosage of 0.02 mg/kg body weight.
Atrial fibrillation was elicited in rats as described in Example 1, hereinabove.

atrial fibrillation [3] = assay: as above; type: in vivo; remark: listed apart in the source
arrhythmia induction = conditions: wild type and M1 cholinergic receptor knockout mice; cited from earlier work
[4] = 0.02 mg/kg into right ventricular cavity, FIG. 2b
[5] = 0.2 mg/kg via tail vein, FIG. 2a
[6] = bolus injection into the right ventricular cavity
[7] = bolus injection into the tail vein
[8] = 0.2 mg/kg through the tail vein, FIG. 5
[9] = RHCA into right ventricular cavity, n=10, FIG. 4
[10] = bolus injection 0.04-0.2 mg/kg body weight

CC(=O)CC(c1ccccc1)c1c(O)c2ccccc2oc1=O (stereo not shown) [Coumadin, warfarin]
reduction of the risk of stroke (stroke): 60-80%

COc1ccc(CCO[C@@H]2CCCC[C@H]2N2CC[C@@H](O)C2)cc1OC [RSD1235]
conversion of recent-onset atrial fibrillation to sinus rhythm [1]: demonstrated its effectiveness to convert recent-onset atrial fibrillation to sinus rhythm

CC(=O)OCC[N+](C)(C)C [acetylcholine]
time of complete AV node conduction recovery following RHCA administration (atrial tachycardia; 0.02 mg/kg into right ventricular cavity): about 6 seconds | period of cardiac arrest after termination (atrial tachycardia; [4]): 1.25 s | time until AV conduction completely recovered (atrial tachycardia; [4]): about 4.5 sec | time to termination of atrial tachycardia (atrial tachycardia; 0.02 mg/kg into right ventricular cavity, example rat (FIG. 2b)): 0.5 s | duration of high degree AV block (atrial tachycardia; 0.02 mg/kg into right ventricular cavity, following acetylcholine hydrolysis): 2.5 s | lag to termination of atrial tachycardia (atrial tachycardia; 0.2 mg/kg body weight via tail vein, representative rat (FIG. 2a)): 2.6 s | time for sinus rhythm to reach its pre-arrhythmic value (atrial tachycardia; 0.2 mg/kg via tail vein): about 1 minute | P-P interval immediately following RHCA administration (atrial tachycardia; [5]): 650 ± 3 ms | R-R interval immediately following RHCA administration (atrial tachycardia; [5]): 652 ± 3 ms | time to termination of atrial tachycardia (atrial tachycardia; 0.02 or 0.2 mg/kg via right ventricular cavity or tail vein, respectively): 0.5 to 15 s | additional time to restore normal rhythm (atrial tachycardia; [6]): 1 to 5 s | time to termination of atrial tachycardia (atrial tachycardia; [6]): 0.5 to 10.5 s | additional time to restore normal rhythm (atrial tachycardia; [7]): 1 to 5 s | time to termination of atrial tachycardia (atrial tachycardia; [7]): 2 to 15 s | time until cardiac arrest, escape rhythm, AV block and sinus bradycardia all disappear (atrial tachycardia; injection into right ventricular cavity): ≤ 15 s | time to conversion to sinus rhythm (atrial tachycardia; ten rats, 0.02-0.2 mg/kg via tail vein): 2 to 5 s | time to conversion to sinus rhythm (atrial flutter): 2 to 5 s | additional time until SA and AV nodes / AV conduction recovered (atrial fibrillation [2]; [8]): 1.5 s | time to termination of atrial fibrillation (atrial fibrillation [2]; [8]): ≤ 9.8 s | atrial fibrillation cases terminated (atrial fibrillation [2]; [9]): 100% | time within which atrial fibrillation cases are terminated (atrial fibrillation [2]; [9]): ≤ 8.4 ± 1.9 s | time to termination of atrial fibrillation (atrial fibrillation [2]; [10]): 0.5 to 15 s | additional time to restore normal rhythm (atrial fibrillation [2]; [6]): 1 to 5 s | time to termination of atrial fibrillation (atrial fibrillation [2]; [6]): 0.5 to 10.5 s | additional time to restore normal rhythm (atrial fibrillation [2]; [7]): 1 to 5 s | time to termination of atrial fibrillation (atrial fibrillation [2]; [7]): 2 to 15 s | time until transient sinus bradycardia (and AV block) disappeared (atrial fibrillation [3]; 0.04 mg/kg into right ventricular cavity): ≤ 20 s | additional time to restore normal rhythm (atrial fibrillation [3]; [10]): 1 to 5 s | effect of intravenous injection on heart rhythm (arrhythmia induction): caused atrioventricular conduction block and induced atrial fibrillation or flutter
